From ChEMBL document CHEMBL1158054, “Cytotoxic monotetrahydrofuran acetogenins from Disepalum plagioneurum” (J Nat Prod, 2006)

Test system: KB
Assay: Cytotoxicity against human KB cells
Type: functional, cell-based

Row | SMILES | IC50
1 | CCCCCCCCCCCC[C@@H](O)[C@H]1CC[C@H]([C@H](O)CC(CCCCC(O)CCCCCCCC2=C[C@H](C)OC2=O)OC(C)=O)O1 (some centres undefined) [PLAGIONEURIN A] | 2.4 nM
2 | CCCCCCCCCCCC[C@H](O)[C@H]1CC[C@H]([C@@H](O)CC(CCCCC(O)CCCCCCCC2=C[C@H](C)OC2=O)OC(C)=O)O1 (some centres undefined) [PLAGIONEURIN B] | 6.5 nM
3 | CCCCCCCCCCCC[C@@H](O)[C@H]1CC[C@H]([C@H](O)CC(CCCCC(=O)CCCCCCCC2=C[C@H](C)OC2=O)OC(C)=O)O1 (some centres undefined) [PLAGIONEURIN C] | 26 nM
4 | CCCCCCCCCCCC[C@@H](O)[C@H]1CC[C@H]([C@H](O)CC(CCCCC(=O)CCCC[C@@H](O)CCC2=C[C@H](C)OC2=O)OC(C)=O)O1 (some centres undefined) [PLAGIONEURIN D] | 2.8 nM
5 | CCCCCCCCCCCC[C@@H](O)[C@H]1CC[C@H]([C@H](O)CC(CCCCC(=O)CCCCC(O)CCC2=C[C@H](C)OC2=O)OC(C)=O)O1 (some centres undefined) [PLAGIONEURIN E] | 2.6 nM
6 | CCCCCCCCCCCC[C@@H](O)[C@H]1CC[C@H]([C@H](O)CCCCC(O)CCCC[C@@H](O)CCC2=C[C@H](C)OC2=O)O1 (some centres undefined) [PLAGIONICIN A] | 2 nM
7 | CCCCCCCCCCCC[C@@H](O)[C@H]1CC[C@@H]([C@@H](O)CCCCC(=O)CCCCC(O)CCC2=C[C@H](C)OC2=O)O1 (some centres undefined) [PLAGIONICIN B] | 1400 nM
8 | CCCCCCCCCCCC[C@@H](O)[C@H]1CC[C@@H]([C@@H](O)CCCC(O)CCCCCC(O)C(O)CC2=C[C@H](C)OC2=O)O1 (some centres undefined) [PLAGIONICIN C] | 6 nM
9 | CCCCCCCCCCCC[C@@H](O)[C@H]1CC[C@H]([C@H](O)CCCC(O)C(O)CCCCC(=O)CCC2=C[C@H](C)OC2=O)O1 (some centres undefined) [PLAGIONICIN D] | 26 nM
